Test results from patent US7449480B2, “Small molecule inhibitors of HER2 expression” (Baylor College of Medicine, priority 2002, dated 2008).
“Also recorded” adds a separate entry of the source.

Tests used:
[1] = tested on: SK-BR3 breast cancer cells; test: Cell viability assay (WST-1) in SK-BR3 breast cancer cells; type: cell-based, human; conditions: for IC50: Homo sapiens, SK-BR-3, 48 hrs incubation, WST-1; for ability to kill SK-BR3 cells (biological activity, in words): compared with adamanolol
Procedure: SK-BR3 breast cancer cells were plated on 96-well plates at density of 5×10^3 cells/well and maintained for 24 hrs. The cells were then incubated with varied concentrations of each compound for 48 hrs, followed by addition of Premix WST-1 Solution (Takara). Cell viability was estimated by measuring absorbance at 450 nm after 1 hr with a SPECTRAmax microplatereader.

ESX-Sur-2 interaction = molecular target: T1, ESX-Sur-2 interaction (Homo sapiens, UniProt Q9ULK4); test: Inhibition of the ESX-Sur-2 interaction in vitro (fluorescence of FITC-ESX129-145 with GST-Sur2352-625); type: binding; conditions: for IC50: FITC-ESX129-145 (152 nM), GST-Sur2352-625 (212 nM); for inhibition of the ESX-Sur-2 interaction in vitro (in words): in vitro fluorescence assay
T1 construct: made in house
T1 sequence (Q9ULK4 352-625): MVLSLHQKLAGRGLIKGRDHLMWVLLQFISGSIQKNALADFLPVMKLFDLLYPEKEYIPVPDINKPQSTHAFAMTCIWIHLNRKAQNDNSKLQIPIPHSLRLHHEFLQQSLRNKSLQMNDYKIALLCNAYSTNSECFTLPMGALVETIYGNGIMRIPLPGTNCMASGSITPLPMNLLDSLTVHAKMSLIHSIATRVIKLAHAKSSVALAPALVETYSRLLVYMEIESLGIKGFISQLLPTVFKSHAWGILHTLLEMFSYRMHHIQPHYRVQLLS
Procedure: To monitor the ESX-DRIP130 interaction, we labeled ESX129-145 with fluorescein isothiocyanate (FITC; Pierce) at the Lys144 position and measured its fluorescence spectra upon adding the glutatathione-S′-transferase (GST) fusion of DRIP130352-625. ESX129-145 was synthesized by standard Fmoc chemistry (the NH2 terminus was capped by an acetyl group during the synthesis) and purified by HPLC. The peptide was then coupled with FITC at the Lys144 position in a conjugation buffer (100 mM carbonate-bicarbonate buffer, pH 9) in dark and purified by NAP-5 desalting column (Amersham). The labeled peptide was quantified by UV and visible absorbance.
GST-Sur-2352-625 was expressed and purified. Varied concentrations of the fusion protein were added to FITC-ESX129-145 (10 nM) in phosphate buffered saline containing 2% (v/v) ethanol, and the fluorescence spectra of FITC-ESX129-145 were measured by an ABI LS-50B Fluorescence Spectrometer (Ex: 490 nm). The dissociation constant of the interaction was estimated to be 12 μM through the emission perturbation at 522 nm.
To examine the effects of adamanolol on the interaction in vitro, the ethanol component of the binding buffer was replaced with an ethanolic solution of adamanolol. The fractions of FITC-ESX129-145 (10 nM) bound to 50 μM of GST-Sur-2352-625 were estimated by measuring fluorescence emission at 522 nm. ESX129-145 and pindolol were used as positive and negative controls, respectively.
In another series of derivatives (the R3 substituents in Table 1), the adamantane group of adamanolol was substituted (11a-d). […] The binding fractions were calculated on the basis of fluorescence spectra of FITC-ESX129-145 (152 nM) in presence of GST-Sur2352-625 (212 nM) and varied concentrations of each adamanolol derivative.

ESX activation domain = test: Transcription reporter gene assay (GAL4 fusion, SEAP), ESX activation domain; type: cell-based, human
Procedure: (§1) Mammalian expression vectors each encoding the activation domain of ESX, VP16, or NFκBp65 fused with the GAL4 DNA-binding domain were used. Each expression construct was co-transfected to HEK293Tag human kidney cells together with a reporter plasmid in which the production of secreted alkaline phosphatase (SEAP) is under control of an IL-2 promoter carrying five GAL4 binding sites. After a 24 hour incubation in the presence or absence of adamanolol, an aliquot of the culture was assayed for SEAP activity. The total amounts of transfected DNA were normalized.
(§2) mammalian expression vectors, each encoding the activation domain of ESX, VP16, or NF-κB p65 fused with the GAL4 DNA-binding domain (amino acids 1-94), were used. Each expression construct was co-transfected to HEK293Tag human kidney cells together with a reporter plasmid in which the production of secreted alkaline phosphatase (SEAP) is under control of an IL2 promoter carrying five GAL4 binding sites. After 10-hr incubation with wrenchnolol (20 μM), an aliquot of the culture was assayed for SEAP activity.

VP16 activation domain = test: Transcription reporter gene assay (GAL4 fusion, SEAP), VP16 activation domain; type: cell-based; conditions: HEK293Tag cells, 24 hour incubation with adamanolol
Procedure: as §1, §2

Her2 = Her2 protein expression by western blot of cell lysates; type: cell-based, human; conditions: SK-BR3 cells, 7.3 μM, 24 hrs; α-tubulin not reduced; listed as adamanolol
From the text: Sur-2 is a human homolog of […] elegans Sur-2, a protein of unknown function whose mutations suppress the phenotype of an activated ras mutation (Singh et al., 1995), and it has been linked to the transcription-activating function of the adenovirus E1A protein and the Elk-1 transcription factor. […] To test this, we designed a cell-permeable peptide that binds Sur-2 (referred to as TAT-ESX129-145). The design takes advantage of the binding affinity of ESX129-145 and the cell internalization property of the 11-aa peptide derived from the HIV TAT protein. We first examined whether TAT ESX129-145 reduces endogenous expression of the Her2 gene in three Her2-overexpressing breast cancer cell lines, SK-BR-3, MDA-MB-453, and […] (FIG. 4). Cells were incubated in the presence or absence of TAT-ESX129-145, and the protein levels of Her2 were examined by Western blot analyses of normalized amounts of cell lysates.
Her2-overexpressing SK-BR3 cells were treated by 7.3 μM of adamanolol for 24 hrs, and whole cell lysates were analyzed by western blots. […]
SK-BR3 cells were treated by 7 μM of wrenchnolol for 24 hrs, and whole cell lysates were analyzed by western blots. […]

[2] = tested on: Her2-positive breast cancer cell lines (SK-BR3, MDA-MB453, and MCF-7); test: Growth and viability of Her2-positive breast cancer cell lines; type: cell-based, human; conditions: SK-BR3, MDA-MB453, MCF-7, 24 hrs
Procedure: (§3) In contrast to the Her2-overexpressing cells, MDA-MB-468, a breast cancer cell line with no detectable levels of Her2, was resistant to TAT-ESX129-145 (FIGS. 5A and 5B). […] The effects of TAT-ESX129-145 on an MCF7 cell line stably transfected with the Her2 gene were examined.
(§4) The breast cancer cells were plated on 96-well plates at the density of 5×10^3 cells/well and maintained for 24 hrs. Adamanolol was added to the medium at varied concentrations and incubated for another 24 hrs. Premix WST-1 solution (Takara) was added to each well and incubated for 2 hrs. Cell viability was estimated by measuring absorbance at 450 nm with a SPECTRAmax microplate reader.

MDA-MB468 = test: Growth and viability of Her2-negative MDA-MB468 cells; type: cell-based, human; conditions: no detectable levels of Her2; 24 hrs
Procedure: as §3, §4

BT474 cells = test: Animal study: BT474-derived tumors in mammary fat pads of nude mice; type: in vivo; conditions: 20 mg/kg daily intraperitoneal, 5 consecutive days each week for two weeks
Procedure: Breast cancer cell lines derived from BT474 after one round (BT474M1) or two rounds (BT474M2) of tumorigenic selection were used. 5×10^6 cells were injected with Matrigel into mammary fat pads of nude mice. Two tumors were inoculated for each animal and each treatment group contained 5 animals. Five weeks after inoculation when the tumors were well established (about 100 mm^3 in average) the treatment started (day 0 in the figure). Each mouse received adamanolol (7QH2) at a daily dose of 20 mg/kg through intraperitoneal injection for 5 consecutive days in each week for two weeks. Tumor volumes were measured every three days. The percentile of the tumor volume related to the initial volume at day 0 was plotted for each time point. Adamanolol is a potent tumor growth inhibitor of HER-2/neu-overexpressing cancer cells in vivo.

[3] = Solubility in neutral aqueous solution; type: physicochemical
Procedure: When the amino group of the handle was protonated, wrenchnolol (7b) and its aminopropyl version (7a) became soluble up to ˜1 mM in neutral aqueous solution. The high water solubility enabled NMR analysis of these molecules in a buffered aqueous solution, and their proton signals were completely assigned through a combination of NOESY, DQF-COSY, and HOHAHA data sets (Table S1).

IC50 [1]	IC50 (ESX-Sur-2 interaction)	inhibition of the ESX-Sur-2 interaction in vitro (in words) (ESX-Sur-2 interaction)	SMILES	ability to kill SK-BR3 cells (biological activity, in words) [1]	further results
6.4 ± 1.8 µM	15.4 ± 0.3 µM	inhibits	CC(C)N(CC(O)COc1cccc2[nH]ccc12)C(=O)N1CCC(C2CCN(C(=O)C34CC5CC(CC(C5)C3)C4)CC2)CC1 (stereo not drawn) [Compound 4a, 1′-(adamantane-1-carbonyl)-[4,4′]bipiperidinyl-1-carboxylic acid [2-hydroxy-3-3-(1H-indol-4-yloxy)-propyl]-isopropyl-amide]		ability of the ESX activation domain to stimulate transcription (ESX activation domain; HEK293Tag cells, 24 hour incubation with adamanolol): impaired; also recorded: selectively inhibits; effect on the VP16 activation domain (VP16 activation domain): little effects; expression of Her2 protein (Her2): significantly reduced; also recorded: inhibition of Her2; viability of Her2-positive breast cancer cell lines ([2]; listed as Adamanolol): impaired the viability; viability of Her2-positive breast cancer cell lines ([2]; listed as adamanolol): selectively impairs the cell growth and viability; viability of MDA-MB468 (MDA-MB468): much milder effects; tumor growth (tumor volume relative to day 0) (BT474 cells): significant growth suppression
2.7 ± 0.3 µM	10 ± 1 µM	increased	Cc1ccc(S(=O)(=O)n2ccc3c(OCC(O)CN(C(=O)N4CCC(C5CCN(C(=O)C67CC8CC(CC(C8)C6)C7)CC5)CC4)C(C)C)cccc32)cc1 (stereo not drawn) [Compound 5a, N-tosyladamanolol]	increased the potency	
4.1 ± 0.2 µM	15.1 ± 0.8 µM		CC(C)CN(CC(O)COc1cccc2[nH]ccc12)C(=O)N1CCC(C2CCN(C(=O)C34CC5CC(CC(C5)C3)C4)CC2)CC1 (stereo not drawn) [Compound 4b]		
4.7 ± 0.1 µM	10.2 ± 1.1 µM		Cc1ccc(S(=O)(=O)n2ccc3c(OCC(O)CN(CCCN)C(=O)N4CCC(C5CCN(C(=O)C67CC8CC(CC(C8)C6)C7)CC5)CC4)cccc32)cc1 (stereo not drawn) [Compound 7a]		solubility [3]: ~1000 µM
11.7 ± 0.1 µM	11.9 ± 0.7 µM		CC(C)(C)OC(=O)NCCCN(CC(O)COc1cccc2[nH]ccc12)C(=O)N1CCC(C2CCN(C(=O)C34CC5CC(CC(C5)C3)C4)CC2)CC1 (stereo not drawn) [Compound 4e]		
5 ± 0.3 µM	12 ± 0.9 µM		CC(C)N(CC(O)COc1cccc2c1ccn2S(=O)(=O)c1cccc2cccnc12)C(=O)N1CCC(C2CCN(C(=O)C34CC5CC(CC(C5)C3)C4)CC2)CC1 (stereo not drawn) [Compound 5b]		
> 100 µM	> 40 µM	almost no ability to block	CC(=O)N1CCC(C2CCN(C(=O)N(CC(O)COc3cccc4[nH]ccc34)C(C)C)CC2)CC1 (stereo not drawn) [Compound 11a]	significant loss of the biological activity	
> 100 µM	> 40 µM	abolished	O=C(NCC(O)COc1cccc2[nH]ccc12)N1CCC(C2CCN(C(=O)C34CC5CC(CC(C5)C3)C4)CC2)CC1 (stereo not drawn) [Compound 4d]	abolished; also recorded: little activity	ability of the ESX activation domain to activate the reporter gene (ESX activation domain; HEK293 cells, 20 μM, 10-hr incubation): almost no effects; also recorded: little effects
> 100 µM	> 40 µM	abolished	COCC(O)CN(C(=O)N1CCC(C2CCN(C(=O)C34CC5CC(CC(C5)C3)C4)CC2)CC1)C(C)C (stereo not drawn) [Compound 12a]	abolished	
